{
  "source": "patent US7074743B1",
  "about": "“Herbicidal composition comprising 4-iodo-2-[3-(4-methoxy-6-methyl-1,3,5-triazin-2-yl)ureidosulfonyl]benzoic esters” (priority 1995, dated 2006)",
  "test_system": "Triticum aestivum",
  "assay": "Damage to crop plant TRZAW, visual scoring vs untreated",
  "format": "in vivo",
  "procedure": "The examples given below were performed in the greenhouse and, in some cases, in field trials.\nThe herbicides, or combinations, were applied in cereals after the weeds had emerged naturally using plot sprayers. After application, the results, such as damage to the crop plants and effect on broad-leaved weeds/grass weeds were assessed by means of visual scoring. The herbicidal action was assessed qualitatively and quantitatively by comparing untreated and treated plots on the basis of the effect on plant growth and the development of chloroses and necroses down to the complete destruction of the weeds (0–100%). The application was effected when the crop plants and weeds were in the 2–4 leaf stage. The test was evaluated approximately 4 weeks after application.\nIn the greenhouse experiments, the crop plants and broadleaved weeds/grass weeds were grown in No. 13 pots and treated in the 2–4 leaf stage. The pots were subsequently placed in the greenhouse under good growth conditions (temperature, atmospheric humidity, water supply).\nThe assessments were carried out similarly to those in the field trials, i.e. visual scoring of the treated plants in comparison with untreated control variants. These assessments were carried out 3 weeks after applying the test preparations and their combinations. The experiments had been set up in two replications.",
  "data": [
    {"smiles": "COC(=O)c1ccc(I)cc1S(=O)(=O)NC(=O)Nc1nc(C)nc(OC)n1.[Na]", "note": "[A), sodium salt of methyl 4-iodo-2-[3-(4-methoxy-6-methyl-1,3,5-triazin-2-yl)ureidosulfonyl]benzoate]", "values": [
      {"measurement": "TRZAW % damage", "setting": "Table 1, 3 g of a.i./ha", "result": 0, "unit": "%"},
      {"measurement": "TRZAW % damage", "setting": "Table 1, 5 g of a.i./ha", "result": 0, "unit": "%"},
      {"measurement": "TRZAW % damage", "setting": "Table 1, 10 g of a.i./ha", "result": 0, "unit": "%"},
      {"measurement": "TRZAW % damage", "setting": "Table 1, 20 g of a.i./ha", "result": 0, "unit": "%"},
      {"measurement": "TRZAW % damage", "setting": "Table 2, 3 g of a.i./ha", "result": 0, "unit": "%"},
      {"measurement": "TRZAW % damage", "setting": "Table 2, 5 g of a.i./ha", "result": 0, "unit": "%"},
      {"measurement": "TRZAW % damage", "setting": "Table 2, 10 g of a.i./ha", "result": 0, "unit": "%"},
      {"measurement": "TRZAW % damage", "setting": "Table 2, 20 g of a.i./ha", "result": 0, "unit": "%"},
      {"measurement": "TRZAW % damage", "setting": "Table 3, 3 g of a.i./ha", "result": 0, "unit": "%"},
      {"measurement": "TRZAW % damage", "setting": "Table 3, 5 g of a.i./ha", "result": 0, "unit": "%"},
      {"measurement": "TRZAW % damage", "setting": "Table 3, 10 g of a.i./ha", "result": 0, "unit": "%"},
      {"measurement": "TRZAW % damage", "setting": "Table 3, 20 g of a.i./ha", "result": 0, "unit": "%"},
      {"measurement": "TRZAW % damage", "setting": "Table 5, 2.5 g of a.i./ha", "result": 0, "unit": "%"},
      {"measurement": "TRZAW % damage", "setting": "Table 5, 5 g of a.i./ha", "result": 0, "unit": "%"},
      {"measurement": "TRZAW % damage", "setting": "Table 5, 10 g of a.i./ha", "result": 0, "unit": "%"},
      {"measurement": "TRZAW % damage", "setting": "Table 5, 20 g of a.i./ha", "result": 10, "unit": "%"},
      {"measurement": "TRZAW % damage", "setting": "Table 5, 40 g of a.i./ha", "result": 15, "unit": "%"},
      {"measurement": "TRZAW % damage", "setting": "Table 5, 80 g of a.i./ha", "result": 18, "unit": "%"},
      {"measurement": "TRZAW % damage", "setting": "Table 5, 160 g of a.i./ha", "result": 28, "unit": "%"},
      {"measurement": "TRZAW % damage", "setting": "Table 7, 2.5 g of a.i./ha", "result": 0, "unit": "%"},
      {"measurement": "TRZAW % damage", "setting": "Table 7, 5 g of a.i./ha", "result": 0, "unit": "%"},
      {"measurement": "TRZAW % damage", "setting": "Table 7, 10 g of a.i./ha", "result": 2, "unit": "%"},
      {"measurement": "TRZAW % damage", "setting": "Table 7, 20 g of a.i./ha", "result": 10, "unit": "%"},
      {"measurement": "TRZAW % damage", "setting": "Table 9, 2.5 g of a.i./ha", "result": 0, "unit": "%"},
      {"measurement": "TRZAW % damage", "setting": "Table 9, 5 g of a.i./ha", "result": 0, "unit": "%"},
      {"measurement": "TRZAW % damage", "setting": "Table 9, 10 g of a.i./ha", "result": 2, "unit": "%"},
      {"measurement": "TRZAW % damage", "setting": "Table 9, 20 g of a.i./ha", "result": 10, "unit": "%"},
      {"measurement": "TRZAW % damage", "setting": "Table 9, 40 g of a.i./ha", "result": 15, "unit": "%"}
    ]}
  ]
}
